# In PubChem BioAssay AID328 (DTP/NCI, 2004):
# Values joined by “and” are separate entries in the source; they are usually repeats but may differ in a detail not shown here. Equal entries are not always repeated. Inconclusive results and toxic doses are left out.
# Test system: BDF1 mice, P388 leukemia ip, median survival T/C
# Test: NCI In Vivo Anticancer Drug Screen. Data for tumor model P388 Leukemia (intraperitoneal) in B6D2F1 (BDF1) mice
# Details: endpoint: median survival time, higher = longer survival
# Outline: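 Steps: implant the tumour, treat one group with compound and another with vehicle, record survival, then divide treated by control.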
# [1] = dose: 100.0 mg/kg/injection, schedule: Q01DX009 (ip), vehicle: saline with Tween-80
# [2] = dose: 200.0 mg/kg/injection, schedule: Q01DX009 (ip), vehicle: saline with Tween-80
# [3] = dose: 100.0 mg/kg/injection, schedule: Q01DX009 (ip), vehicle: saline
# [4] = dose: 100.0 mg/kg/injection, schedule: Q04DX003 (ip), vehicle: saline
# [5] = dose: 200.0 mg/kg/injection, schedule: Q04DX003 (ip), vehicle: saline
# [6] = dose: 400.0 mg/kg/injection, schedule: Q04DX003 (ip), vehicle: saline
# [7] = dose: 100.0 mg/kg/injection, schedule: Q04DX003 (ip), vehicle: Klucel (hydroxypropylcellulose) (HPC)
# [8] = dose: 200.0 mg/kg/injection, schedule: Q04DX003 (ip), vehicle: Klucel (hydroxypropylcellulose) (HPC)
# [9] = dose: 400.0 mg/kg/injection, schedule: Q04DX003 (ip), vehicle: Klucel (hydroxypropylcellulose) (HPC)
# [10] = dose: 100.0 mg/kg/injection, schedule: Q04DX003 (ip), vehicle: saline with Tween-80
# [11] = dose: 200.0 mg/kg/injection, schedule: Q04DX003 (ip), vehicle: saline with Tween-80
# [12] = dose: 400.0 mg/kg/injection, schedule: Q04DX003 (ip), vehicle: saline with Tween-80
# [13] = dose: 100.0 mg/kg/injection, schedule: Q01DX009 (ip), vehicle: Klucel (hydroxypropylcellulose) (HPC)
# [14] = dose: 300.0 mg/kg/injection, schedule: Q04DX003 (ip), vehicle: saline with Tween-80
compound,measurement,setting,value
CCCOn1nnc2cc(Cl)ccc21,T/C,[1],100 % of control
same,T/C,[2],92 % of control
CCCCCCCCCCNC1CC(OC2CC(O)(C(C)=O)Cc3c(O)c4c(c(O)c32)C(=O)c2c(OC)cccc2C4=O)OC(C)C1O (stereo not drawn),T/C,"dose: 3.13 mg/kg/injection, schedule: Q01DX009 (ip), vehicle: water",108 % of control
same,T/C,"dose: 6.25 mg/kg/injection, schedule: Q01DX009 (ip), vehicle: water",103 % of control
CC(O)C1(O)C(O)CC(OC2c3cc4c(c(O)c3[C@@H]3C[C@@]2(C)OC32C=c3cc[nH]c3=N2)C(=O)c2cccc(O)c2C4=O)OC1C (stereo partly drawn),T/C,"dose: 0.5 mg/kg/injection, schedule: Q01DX009 (ip), vehicle: saline with Tween-80",105 % of control
same,T/C,"dose: 0.5 mg/kg/injection, schedule: Q01DX009 (ip), vehicle: saline",103 % of control and 109 % of control
same,T/C,"dose: 1.0 mg/kg/injection, schedule: Q01DX009 (ip), vehicle: saline with Tween-80",119 % of control
same,T/C,"dose: 1.0 mg/kg/injection, schedule: Q01DX009 (ip), vehicle: saline",118 % of control and 124 % of control
same,T/C,"dose: 2.0 mg/kg/injection, schedule: Q01DX009 (ip), vehicle: saline with Tween-80",111 % of control
same,T/C,"dose: 2.0 mg/kg/injection, schedule: Q01DX009 (ip), vehicle: saline",111 % of control and 118 % of control
same,T/C,"dose: 4.0 mg/kg/injection, schedule: Q01DX009 (ip), vehicle: saline with Tween-80",117 % of control
same,T/C,"dose: 8.0 mg/kg/injection, schedule: Q01DX009 (ip), vehicle: saline with Tween-80",122 % of control
S=C(S)N1CCOCC1,T/C,[3],91 % of control
same,T/C,[4],100 % of control
same,T/C,"dose: 200.0 mg/kg/injection, schedule: Q01DX009 (ip), vehicle: saline",100 % of control
same,T/C,[5],95 % of control
same,T/C,"dose: 400.0 mg/kg/injection, schedule: Q01DX009 (ip), vehicle: saline",95 % of control
same,T/C,[6],86 % of control
COC(OC)c1cc(S)[nH]c(=O)c1F,T/C,[7],100 % of control
same,T/C,[8],110 % of control
same,T/C,[9],100 % of control
O=c1[nH]c2cc(Cl)ccc2c(CCl)c1Cl,T/C,"dose: 25.0 mg/kg/injection, schedule: Q04DX003 (ip), vehicle: saline",109 % of control
same,T/C,"dose: 50.0 mg/kg/injection, schedule: Q04DX003 (ip), vehicle: saline",104 % of control
same,T/C,"dose: 56.25 mg/kg/injection, schedule: Q01DX001 (ip), vehicle: saline with Tween-80",109 % of control
same,T/C,[4],100 % of control
same,T/C,"dose: 112.5 mg/kg/injection, schedule: Q01DX001 (ip), vehicle: saline with Tween-80",113 % of control
same,T/C,"dose: 225.0 mg/kg/injection, schedule: Q01DX001 (ip), vehicle: saline with Tween-80",109 % of control
CCc1ccc(C(=O)C2CC2)cc1,T/C,[10],104 % of control
same,T/C,"dose: 133.0 mg/kg/injection, schedule: Q01DX008 (ip), vehicle: saline with Tween-80",108 % of control
same,T/C,"dose: 200.0 mg/kg/injection, schedule: Q01DX008 (ip), vehicle: saline with Tween-80",116 % of control
same,T/C,[11],112 % of control
same,T/C,"dose: 300.0 mg/kg/injection, schedule: Q01DX008 (ip), vehicle: saline with Tween-80",115 % of control
same,T/C,[12],104 % of control
S=c1nc(COc2ccccc2Cl)[nH][nH]1,T/C,[10],100 % of control
same,T/C,[11],109 % of control
same,T/C,[12],104 % of control
FC(F)(F)c1cc(CN(CCCl)CCCl)cc(C(F)(F)F)c1,T/C,"dose: 12.5 mg/kg/injection, schedule: Q01DX009 (ip), vehicle: Klucel (hydroxypropylcellulose) (HPC)",101 % of control
same,T/C,"dose: 12.5 mg/kg/injection, schedule: Q01DX009 (ip), vehicle: other",116 % of control
same,T/C,"dose: 12.5 mg/kg/injection, schedule: Q01DX009 (ip), vehicle: saline",100 % of control
same,T/C,"dose: 25.0 mg/kg/injection, schedule: Q01DX009 (ip), vehicle: Klucel (hydroxypropylcellulose) (HPC)",108 % of control and 120 % of control
same,T/C,"dose: 25.0 mg/kg/injection, schedule: Q01DX009 (ip), vehicle: saline",188 % of control
same,T/C,"dose: 50.0 mg/kg/injection, schedule: Q01DX009 (ip), vehicle: other",150 % of control
same,T/C,"dose: 50.0 mg/kg/injection, schedule: Q01DX009 (ip), vehicle: saline",172 % of control
same,T/C,[13],153 % of control and 165 % of control
same,T/C,[3],194 % of control
CCCCCCCCCCCC[n+]1ccc2ccccc2c1,T/C,"dose: 1.0 mg/kg/injection, schedule: Q01DX010 (ip), vehicle: saline",115 % of control
C=CC(=O)NCNC(=O)C=C,T/C,"dose: 132.0 mg/kg/injection, schedule: Q04DX003 (ip), vehicle: saline with Tween-80",118 % of control
same,T/C,[14],222 % of control
c1ccc2c(c1)Sc1cnccc1N2CC1CO1 (stereo not drawn),T/C,[4],104 % of control
same,T/C,[5],90 % of control
same,T/C,[6],95 % of control
CC1OC(OC2CC(O)C3(CO)C4C(O)CC5(C)C(C6=CC(=O)OC6)CCC5(O)C4CCC3(O)C2)C(O)C(O)C1O (stereo not drawn),T/C,"dose: 1.5 mg/kg/injection, schedule: Q01DX010 (ip), vehicle: saline",90 % of control
same,T/C,"dose: 3.0 mg/kg/injection, schedule: Q01DX010 (ip), vehicle: saline",90 % of control
CN1C(=O)CN=C(c2ccc[nH]2)c2cc(Cl)ccc21 (tested in a mixture with another compound),T/C,"dose: 50.0 mg/kg/injection, schedule: Q01DX009 (ip), vehicle: Klucel (hydroxypropylcellulose) (HPC)",104 % of control
same,T/C,[13],109 % of control
same,T/C,[7],100 % of control
same,T/C,"dose: 200.0 mg/kg/injection, schedule: Q01DX009 (ip), vehicle: Klucel (hydroxypropylcellulose) (HPC)",100 % of control
same,T/C,[8],104 % of control
same,T/C,[9],90 % of control
CCCCCCCN(CCCCCCC)CC(O)c1cc2ccccc2c2cnccc12 (stereo not drawn),T/C,"dose: 75.0 mg/kg/injection, schedule: Q04DX003 (ip), vehicle: saline with Tween-80",104 % of control
same,T/C,"dose: 150.0 mg/kg/injection, schedule: Q04DX003 (ip), vehicle: saline with Tween-80",113 % of control
same,T/C,[14],95 % of control
CN(C)CC(C(=O)c1ccc(Br)cc1)C(Br)c1ccccc1 (stereo not drawn),T/C,"dose: 0.78 mg/kg/injection, schedule: Q01DX009 (ip), vehicle: Klucel (hydroxypropylcellulose) (HPC)",100 % of control
same,T/C,"dose: 1.56 mg/kg/injection, schedule: Q01DX009 (ip), vehicle: Klucel (hydroxypropylcellulose) (HPC)",95 % of control
same,T/C,"dose: 3.12 mg/kg/injection, schedule: Q01DX009 (ip), vehicle: Klucel (hydroxypropylcellulose) (HPC)",108 % of control
same,T/C,"dose: 4.6 mg/kg/injection, schedule: Q01DX009 (ip), vehicle: saline",113 % of control
same,T/C,"dose: 7.0 mg/kg/injection, schedule: Q01DX009 (ip), vehicle: saline",118 % of control
same,T/C,"dose: 10.0 mg/kg/injection, schedule: Q01DX009 (ip), vehicle: saline",109 % of control
same,T/C,"dose: 14.0 mg/kg/injection, schedule: Q01DX009 (ip), vehicle: saline",108 % of control
same,T/C,"dose: 16.25 mg/kg/injection, schedule: Q04DX003 (ip), vehicle: saline",100 % of control
same,T/C,"dose: 22.0 mg/kg/injection, schedule: Q01DX009 (ip), vehicle: saline",108 % of control
same,T/C,"dose: 32.5 mg/kg/injection, schedule: Q04DX003 (ip), vehicle: saline",105 % of control
same,T/C,"dose: 65.0 mg/kg/injection, schedule: Q04DX003 (ip), vehicle: saline",110 % of control
CCO/C=C1\SC(=S)N(c2ccc(O)cc2)C1=O,T/C,"dose: 50.0 mg/kg/injection, schedule: Q01DX009 (ip), vehicle: saline with Tween-80",116 % of control
same,T/C,[1],116 % of control
same,T/C,[2],116 % of control
O=C(O)CCSSCCC(=O)O,T/C,[7],95 % of control
same,T/C,[8],100 % of control
